Measurements as given in patent US20060148895A1, “New composition use and method” (priority 2002, published 2006).
Read-outs that look alike come from different tables or passages of the source.

Experiments:
[1] = cited from earlier work
[2] = Washing-out properties: residuals of Pres. (18) components after rinsing the housing; details: to a 50 kg person
Description: In a safety evaluation it assumed that the entire volume of a housing is filled with the aqueous antimicrobial preservation composition as the worst case. […] (18). The housing was inserted in its device for extra-corporeal circulation treatment and rinsed with 900 ml of a Ringer-Acetate solution (Pharmacia, Inc) before clinical use. The residual concentration of the components of Pres. (18) after the rinsing procedure was then analyzed. The maximum concentrations found were below the detection limit: […]

[3] = cited from earlier work; remark: listed apart in the source
[4] = neat ethyl paraben; cited from earlier work
[5] = healthy subjects; cited from earlier work
[6] = 5 day covered contact in 50 human volunteers, cited from earlier work
[7] = cited from earlier work; remark: listed apart in the source
[8] = cited from earlier work; remark: listed apart in the source
[9] = cited from earlier work; remark: listed apart in the source
[10] = after ingesting 2000 mg/day for 30 days; cited from earlier work

| SMILES | Repeated oral dose (Rat) - 25 weeks: signs of toxicity ([1]; diet containing 2% ethyl paraben, 25 weeks) | Maximal intravenous dose from residuals [2] [mg/kg] | Acute oral LD50 (Rat) [3] [mg/kg] | Eye irritation (rabbit) [4] | Skin sensitisation (human) [5] | Skin irritation (human) ([6]; 7% solution in propylene glycol) | Repeated oral dose (Rat) - 96 weeks: dose that gave no visible signs of toxicity or tissue changes in the major organs [1] | Acute oral LD50 (Mouse) [7] [mg/kg] | Eye irritation (human) ([8]; solution containing 0.01% propyl paraben, contact time of 15 minutes in 60 patients) | Skin irritation (human) ([6]; 12% solution in Propylene glycol) | Intraperitoneal LD50 (Mouse) [9] [mg/kg] | Repeated oral dose (human) [10] | Eye irritation (human): time within which irritation and burning sensation disappeared ([8]; solutions containing 0.1-0.3% methyl paraben) | Skin irritation (human) ([6]; 5% solution in Propylene glycol) |
| --- | --- | --- | --- | --- | --- | --- | --- | --- | --- | --- | --- | --- | --- | --- |
| CCOC(=O)c1ccc(O)cc1 [Ethyl paraben] | paraben gave no visible signs | <0.042 | >4300 | slight irritation | No evidence of skin | glycol was non-irritant. (5 | – | – | – | – | – | – | – | – |
| CCCOC(=O)c1ccc(O)cc1 [Propyl paraben] | – | <0.042 | – | – | – | – | 900-1200 mg/kg/day gave no | >8000 | propyl paraben produced no | glycol was non-irritant. (5 | 640 | – | – | – |
| COC(=O)c1ccc(O)cc1 [Methyl paraben] | – | 0.042 | – | – | No evidence of skin | – | 900-1200 mg/kg/day gave no | >8000 | – | – | 960 | No obvious toxic effects | disappeared within 1 minute | glycol was non-irritant. (5 |
| CC(O)CO (stereo not drawn) [Propylene glycol] | – | <0.022 | – | – | – | – | – | – | – | – | – | – | – | – |
